Calls of active or inactive are those of the source.
Legend:
[1] = THP-1 cell cytotoxicity, dose response, cytotoxicity control for Vif-APOBEC3G degradation inhibitor project, THP-1 cells (AID 1117359); assay type: functional; conditions: Human immunodeficiency virus 1, THP-1
[2] = target: Luciferin 4-monooxygenase (Photinus pyralis, UniProt P08659); assay: Counter Screen for Luciferase-based Assay Positives. [Related pubchem assays: 620, 618, 411 ]
HT-1080 = assay: cytotoxicity in HT1080 fibrosarcoma cells, cell-based, fluorescence readout (AID 620); assay type: functional; conditions: Homo sapiens
[3] = target: T1, COUP transcription factor 2 (Homo sapiens, UniProt P24468); assay: Luminescence-based cell-based high throughput dose response assay to identify inhibitors of COUP-TFII (NR2F2).; assay type: functional;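 further: HEK293 cells transiently cotransfected with COUP-TFII expression vector and reporter; luciferase reporter luminescence driven by COUP-TFII from the pX2-168 reporter plasmid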
T1 sequence (P24468 whole entry): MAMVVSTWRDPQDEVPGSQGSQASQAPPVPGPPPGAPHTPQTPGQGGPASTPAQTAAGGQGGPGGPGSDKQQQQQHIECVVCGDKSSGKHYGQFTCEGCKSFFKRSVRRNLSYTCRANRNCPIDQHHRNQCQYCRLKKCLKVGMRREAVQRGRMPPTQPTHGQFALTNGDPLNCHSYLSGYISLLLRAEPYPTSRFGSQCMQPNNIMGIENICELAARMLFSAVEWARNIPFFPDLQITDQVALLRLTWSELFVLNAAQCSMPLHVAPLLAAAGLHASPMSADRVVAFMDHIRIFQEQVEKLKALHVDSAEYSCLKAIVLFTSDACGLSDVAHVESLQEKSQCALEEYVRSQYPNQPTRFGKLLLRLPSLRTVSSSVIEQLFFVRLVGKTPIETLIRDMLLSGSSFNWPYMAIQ

Vero = assay: cells; assay type: functional; conditions: Chlorocebus sabaeus
[4] = target: Peroxisome proliferator-activated receptor gamma/Nuclear receptor coactivator 2 (Homo sapiens, UniProt P37231); assay type: functional;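 further: agonist potency for raising coactivator recruitment to the receptor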
[5] = target: Peroxisome proliferator-activated receptor gamma/Nuclear receptor coactivator 3 (Homo sapiens, UniProt P37231); assay type: functional;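 further: agonist potency for raising coactivator recruitment to the receptor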
[6] = target: Peroxisome proliferator-activated receptor gamma/Nuclear receptor coactivator 1 (Homo sapiens, UniProt P37231); assay type: functional;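 further: agonist potency as compounds enhance coactivator SRC-1 recruitment to PPARgamma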
[7] = test system: Streptococcus sp. 'group A'; assay: growth inhibition of control SK(-) GAS strain, dose response, counter-screen for streptokinase expression inhibitor project, luminescence, kanamycin, BacTiterGlo, confirmation (AID 1900); assay type: functional, organism-based
Fatty acid synthase [8] = target: T2, Fatty acid synthase (Homo sapiens, UniProt P49327); assay: FAS thioesterase domain inhibitors, dose response, biochemical, endpoint fluorescence intensity, uHTS hits (AID 624327); assay type: functional;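 further: fluorescence from hydrolysis of an O-methyl fluorescein acyl ester substrate by the enzyme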
T2 sequence (P49327 whole entry, the tested form may be a part): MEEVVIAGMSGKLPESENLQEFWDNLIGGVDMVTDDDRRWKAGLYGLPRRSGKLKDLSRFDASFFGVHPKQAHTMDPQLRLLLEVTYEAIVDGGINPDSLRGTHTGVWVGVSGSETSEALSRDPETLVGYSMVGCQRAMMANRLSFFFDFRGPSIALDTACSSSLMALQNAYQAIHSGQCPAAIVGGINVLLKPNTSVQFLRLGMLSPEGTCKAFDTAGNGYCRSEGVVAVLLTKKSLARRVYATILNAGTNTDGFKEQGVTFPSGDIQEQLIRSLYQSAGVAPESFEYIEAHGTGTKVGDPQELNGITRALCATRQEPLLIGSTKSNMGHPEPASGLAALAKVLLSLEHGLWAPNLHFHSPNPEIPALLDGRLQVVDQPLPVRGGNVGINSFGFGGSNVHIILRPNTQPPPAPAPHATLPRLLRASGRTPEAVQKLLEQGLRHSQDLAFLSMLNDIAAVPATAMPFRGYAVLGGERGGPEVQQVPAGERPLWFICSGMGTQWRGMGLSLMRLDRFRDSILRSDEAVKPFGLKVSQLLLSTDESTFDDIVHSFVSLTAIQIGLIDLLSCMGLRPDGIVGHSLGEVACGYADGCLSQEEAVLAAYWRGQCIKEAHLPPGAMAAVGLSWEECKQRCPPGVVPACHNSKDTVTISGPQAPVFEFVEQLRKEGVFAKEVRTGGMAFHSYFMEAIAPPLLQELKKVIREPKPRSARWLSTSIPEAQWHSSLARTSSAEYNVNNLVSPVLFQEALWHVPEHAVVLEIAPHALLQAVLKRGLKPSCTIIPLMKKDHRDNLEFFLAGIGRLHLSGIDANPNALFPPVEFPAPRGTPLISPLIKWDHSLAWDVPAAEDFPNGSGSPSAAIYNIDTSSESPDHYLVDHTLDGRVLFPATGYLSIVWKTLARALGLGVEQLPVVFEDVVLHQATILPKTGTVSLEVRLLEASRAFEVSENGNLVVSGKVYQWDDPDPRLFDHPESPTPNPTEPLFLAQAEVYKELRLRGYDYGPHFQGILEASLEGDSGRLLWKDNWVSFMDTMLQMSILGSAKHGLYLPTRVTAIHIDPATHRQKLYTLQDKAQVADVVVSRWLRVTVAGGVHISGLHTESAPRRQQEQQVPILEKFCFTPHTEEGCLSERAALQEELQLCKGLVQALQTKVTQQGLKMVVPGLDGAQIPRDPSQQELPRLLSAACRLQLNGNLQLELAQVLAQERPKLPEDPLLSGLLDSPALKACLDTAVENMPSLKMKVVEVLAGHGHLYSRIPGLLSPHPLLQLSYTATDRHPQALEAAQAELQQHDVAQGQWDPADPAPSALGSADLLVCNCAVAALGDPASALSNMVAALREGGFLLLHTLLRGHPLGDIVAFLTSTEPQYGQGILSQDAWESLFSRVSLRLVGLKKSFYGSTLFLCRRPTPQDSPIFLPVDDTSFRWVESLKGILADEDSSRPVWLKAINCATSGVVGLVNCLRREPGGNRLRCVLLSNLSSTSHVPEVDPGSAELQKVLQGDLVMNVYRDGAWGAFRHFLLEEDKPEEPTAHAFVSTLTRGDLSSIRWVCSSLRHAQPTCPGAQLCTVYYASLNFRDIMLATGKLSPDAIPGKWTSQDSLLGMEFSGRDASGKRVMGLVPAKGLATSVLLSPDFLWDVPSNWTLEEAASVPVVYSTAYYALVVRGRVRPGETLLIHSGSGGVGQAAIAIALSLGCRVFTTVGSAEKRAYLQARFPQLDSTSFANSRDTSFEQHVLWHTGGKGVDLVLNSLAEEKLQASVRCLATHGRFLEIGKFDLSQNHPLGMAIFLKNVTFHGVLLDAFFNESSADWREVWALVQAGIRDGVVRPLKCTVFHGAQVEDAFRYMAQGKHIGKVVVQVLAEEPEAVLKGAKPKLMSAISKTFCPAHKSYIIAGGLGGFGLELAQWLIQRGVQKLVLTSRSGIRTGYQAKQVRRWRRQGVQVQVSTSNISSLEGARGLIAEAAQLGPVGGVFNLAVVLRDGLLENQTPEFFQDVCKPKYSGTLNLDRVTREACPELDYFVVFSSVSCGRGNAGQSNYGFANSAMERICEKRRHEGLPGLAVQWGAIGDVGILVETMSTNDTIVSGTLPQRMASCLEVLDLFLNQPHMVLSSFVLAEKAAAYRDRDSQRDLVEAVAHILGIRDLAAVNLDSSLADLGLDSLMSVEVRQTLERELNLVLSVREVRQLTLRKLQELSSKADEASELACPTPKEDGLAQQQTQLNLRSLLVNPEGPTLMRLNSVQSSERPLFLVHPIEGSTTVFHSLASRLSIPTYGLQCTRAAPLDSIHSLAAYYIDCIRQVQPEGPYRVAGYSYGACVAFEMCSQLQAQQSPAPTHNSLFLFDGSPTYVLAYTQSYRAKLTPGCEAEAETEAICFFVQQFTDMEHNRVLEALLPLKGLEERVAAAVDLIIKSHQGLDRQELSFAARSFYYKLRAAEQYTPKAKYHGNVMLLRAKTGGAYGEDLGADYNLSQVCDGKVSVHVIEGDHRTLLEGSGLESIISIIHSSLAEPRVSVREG

Streptococcus = assay: Group A Streptococcus viability loss, dose response, counter-screen for streptokinase expression inhibitor project, luminescence, BacTiterGlo (AID 1915); assay type: functional, organism-based;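 further: potency for reduction of bacterial viability or growth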
Fatty acid synthase [9] = target: T2, Fatty acid synthase; assay: FAS thioesterase domain inhibitors, dose response, biochemical, kinetic fluorescence intensity (AID 624326); assay type: functional;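 further: rate of fluorescence rise from hydrolysis of a fluorogenic O-methyl fluorescein ester substrate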
[10] = NIH-3T3 fibroblast cytotoxicity, dose response, cytotoxicity control, cell-based, fluorescence, Alamar Blue, secondary assay (AID 2327); assay type: functional;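 further: NIH-3T3 mouse fibroblasts cultured with fluconazole at 8 µg/mL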
Albumin = Albumin (Bos taurus, UniProt P02769); assay: Counterscreen for inhibitors of T-cell receptor (TCR)-CD3 interaction: Fluorescence-based biochemical high throughput dose response assay to identify inhibitors of T-cell receptor (TCR)-CD3 interaction using a TAMRA-labeled BSA probe.; assay type: functional
Sequence of Albumin (P02769 whole entry): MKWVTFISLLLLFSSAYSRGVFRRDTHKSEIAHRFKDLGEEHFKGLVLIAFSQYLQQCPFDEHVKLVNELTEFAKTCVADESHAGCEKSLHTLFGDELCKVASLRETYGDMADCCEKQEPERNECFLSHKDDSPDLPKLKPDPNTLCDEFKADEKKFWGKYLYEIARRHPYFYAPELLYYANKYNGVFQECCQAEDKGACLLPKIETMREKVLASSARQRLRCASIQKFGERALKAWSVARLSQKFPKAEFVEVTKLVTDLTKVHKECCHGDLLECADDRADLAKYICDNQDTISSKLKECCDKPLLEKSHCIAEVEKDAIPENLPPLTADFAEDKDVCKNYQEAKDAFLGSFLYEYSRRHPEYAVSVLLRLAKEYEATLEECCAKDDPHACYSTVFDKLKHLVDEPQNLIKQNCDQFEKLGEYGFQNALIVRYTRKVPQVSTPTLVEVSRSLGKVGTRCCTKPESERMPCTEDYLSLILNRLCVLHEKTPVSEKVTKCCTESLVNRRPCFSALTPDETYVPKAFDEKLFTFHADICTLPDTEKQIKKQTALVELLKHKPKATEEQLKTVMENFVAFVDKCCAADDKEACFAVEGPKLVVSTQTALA

[11] = C. albicans growth with fluconazole, confirmation, fluorescence, retest (AID 2467); assay type: functional, cell-based
[12] = inhibitors of Vif binding to APOBEC3G peptide, primary screen, biochemical, TR-FRET, GST-Vif 1-94, biotin-A3G peptide, dose response retest (AID 1117319); assay type: functional;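 further: TR-FRET signal of purified GST-Vif binding a biotinylated A3G peptide; inhibitors lower the FRET signal by blocking Vif and A3G binding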
[13] = target: T3, Oxysterols receptor LXR-beta (Homo sapiens, UniProt P55055); assay type: functional, cell-based;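 further: agonist activity at LXR measured by a cell-based luminescence readout across a dose range, run as a counterscreen for daf-12 agonists; HEK293 cells with Gal4-LXR fusion and GAL4-driven luciferase reporter; potency for activation of Gal4-LXR reporter so compounds are agonists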
T3 sequence (P55055 whole entry): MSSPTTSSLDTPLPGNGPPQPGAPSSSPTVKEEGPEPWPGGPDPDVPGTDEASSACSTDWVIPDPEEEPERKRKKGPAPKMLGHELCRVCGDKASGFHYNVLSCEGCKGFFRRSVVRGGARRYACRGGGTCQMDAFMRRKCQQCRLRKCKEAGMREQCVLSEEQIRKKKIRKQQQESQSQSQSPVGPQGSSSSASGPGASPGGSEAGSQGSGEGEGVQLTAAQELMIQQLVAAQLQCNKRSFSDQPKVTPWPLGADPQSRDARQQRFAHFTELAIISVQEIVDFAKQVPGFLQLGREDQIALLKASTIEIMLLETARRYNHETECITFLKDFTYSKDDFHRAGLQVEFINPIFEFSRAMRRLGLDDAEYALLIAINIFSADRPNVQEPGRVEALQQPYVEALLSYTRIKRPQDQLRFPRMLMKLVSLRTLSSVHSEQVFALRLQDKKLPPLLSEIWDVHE

[14] = cytotoxicity in OVCAR8 ovarian cancer cells, dose response, PAX8 project, cell-based, plate reader, dry powder samples (AID 743197); assay type: functional; conditions: OVCAR-8
Paired box protein Pax-8 = Paired box protein Pax-8 (Homo sapiens, UniProt Q06710); assay: inhibitors of PAX8-driven TPO luciferase reporter, dose response, RMG-I cells, cherry-pick (AID 687027); assay type: functional, cell-based;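 further: luciferase reporter driven by Pax8 target thyroperoxidase promoter measured by SteadyGlo luminescence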
Sequence of Paired box protein Pax-8 (Q06710 whole entry): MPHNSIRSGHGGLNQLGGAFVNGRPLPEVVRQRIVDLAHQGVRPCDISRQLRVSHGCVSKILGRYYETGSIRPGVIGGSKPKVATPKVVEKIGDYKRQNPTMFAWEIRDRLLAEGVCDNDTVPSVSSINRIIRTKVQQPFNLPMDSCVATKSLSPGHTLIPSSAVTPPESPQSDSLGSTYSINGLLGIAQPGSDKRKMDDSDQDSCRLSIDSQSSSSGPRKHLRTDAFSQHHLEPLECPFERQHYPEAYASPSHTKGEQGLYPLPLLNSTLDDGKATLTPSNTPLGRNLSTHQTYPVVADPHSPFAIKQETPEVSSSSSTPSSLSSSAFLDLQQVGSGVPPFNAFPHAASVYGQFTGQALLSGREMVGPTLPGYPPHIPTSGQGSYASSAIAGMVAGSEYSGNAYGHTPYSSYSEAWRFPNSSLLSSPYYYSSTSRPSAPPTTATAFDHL

Sequence of Luciferin 4-monooxygenase (P08659 whole entry): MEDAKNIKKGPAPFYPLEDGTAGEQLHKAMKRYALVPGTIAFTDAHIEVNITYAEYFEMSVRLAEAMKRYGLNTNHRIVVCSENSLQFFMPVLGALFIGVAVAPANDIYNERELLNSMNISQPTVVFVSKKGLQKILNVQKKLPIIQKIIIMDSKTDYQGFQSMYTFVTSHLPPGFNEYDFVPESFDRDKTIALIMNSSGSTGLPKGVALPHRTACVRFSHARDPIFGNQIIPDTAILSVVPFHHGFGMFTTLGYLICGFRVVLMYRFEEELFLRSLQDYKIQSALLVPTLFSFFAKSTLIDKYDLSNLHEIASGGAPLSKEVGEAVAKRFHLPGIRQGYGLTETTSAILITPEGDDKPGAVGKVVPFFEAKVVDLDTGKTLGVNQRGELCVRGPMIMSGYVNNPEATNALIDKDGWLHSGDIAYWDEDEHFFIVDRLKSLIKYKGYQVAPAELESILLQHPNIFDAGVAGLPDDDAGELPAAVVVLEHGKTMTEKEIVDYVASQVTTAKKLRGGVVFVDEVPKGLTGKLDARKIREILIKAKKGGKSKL

SMILES: COc1ccccc1NC(=O)COC(=O)c1c(NC(C)=O)sc(C)c1C
- CC50 [1]: > 40 µM (active)

SMILES: CC(=O)Nc1ccc2oc(-c3cc(F)c(F)cc3Cl)nc2c1
- EC50 [2]: 16.2 µM (active)
- EC50 (HT-1080): > 50 µM (not active)

SMILES: Cc1n[nH]c(C(F)(F)F)c1N=NN1CCOCC1
- IC50 [3]: 15.5 µM (inactive)
- CC50 (Vero): 6.78 µM (active)

SMILES: O=C1OCCC1Sc1nnc(-c2ccc(Br)cc2)o1 (centres undefined)
- EC50 [4]: 75.3 µM (not active)
- EC50 [5]: > 79.4 µM (not active)
- EC50 [6]: > 79.4 µM (not active)

SMILES: O=C(N/N=C/c1cc([N+](=O)[O-])ccc1O)/C(=C\c1cccs1)NC(=O)c1ccccc1
- EC50 [7]: 0.76 µM (active)
- IC50 (Fatty acid synthase [8]): 15.2 µM (active)
- EC50 (Streptococcus): 2.16 µM (active)
- IC50 (Fatty acid synthase [9]): 13.8 µM (active)
- EC50 [10]: > 160 µM (inactive)
- IC50 (Albumin): > 94.1 µM (inactive)
- EC50 [11]: 3.32 µM (active)

SMILES: COc1ccccc1C(=O)Nc1ccc(-c2nnc(SCC(=O)O)n2C)cc1
- IC50 [12]: > 100 µM (active)

SMILES: COc1ccccc1/C=N\N=C(\N)c1ccccn1
- EC50 [13]: > 67.6 µM (inactive)

SMILES: COc1ccc(CN(C)C[C@@H]2OCCCC[C@H](C)Oc3ccc(NC(=O)Nc4cccc5ccccc45)cc3C(=O)N([C@H](C)CO)C[C@H]2C)cc1
- AC50 [14]: > 70 µM (inactive)
- AC50 (Paired box protein Pax-8): 69.6 µM (active)

From ChEMBL document CHEMBL1201862, “PubChem BioAssay data set” (2004)
